This is an account of results in US20100112037A1, “S1P RECEPTOR AGONISTS FOR THE TREATMENT OF CEREBRAL MALARIA” (priority 2008, published 2010).

One assay deals with P. berghei ANKA. Nature of the assay: Cerebral malaria model (survival of infected mice). Type of assay: in vivo, C56B1/6 mice. The conditions noted are these: FTY720 0.3 mg/kg/day by gavage, administered one day prior to malaria infection; vs control; two independent experiments, Log-Rank Test, p=0.0002; FIG. 1. On the procedure: A well characterized and widely used animal model of CM was used to test the efficacy of compounds. See, e.g., Golenser, supra, at 585. In each experiment, two groups of C56B1/6 mice were infected with 1 million parasites (P. berghei ANKA) i.p. in 500 μl of media. The first group was the control group, and the second was treated daily by gavage with FTY720 (0.3 mg/kg/day).
After at least two doses of the drug had been administered, tail vein blood was taken from the mice, and flow cytometry analysis was used to assess the levels of B and T cells, using antibodies to CD3, CD4, CD8 and CD19. The animals were monitored daily for body weight and parasitaemia, and twice daily for survival.

A short description of assay [1]: Topical and transdermal administration: blood cell counts (CBC). Type of assay: in vivo, F1 hybrid mice. The settings on record: topical (200 μL of 1 mg/mL solution) and transdermal patch; measured six hours after administration; FIG. 2. How it is done: Drug-in-adhesive transdermal patches containing FTY720 were made by dissolving FTY720 in adhesive (Duro-Tak 87-2196, National Starch & Chemical Co.) at a ratio of 1 part compound to 10 parts adhesive (weight:weight). Adhesive containing FTY720 was layered onto a release liner (Scotchpak 1022 PET Film, 3M Corporation) using a Bird applicator with a 50 to 200 micron gap. Organic solvents were removed from the film by baking at 100° C. for 15 minutes. The dried adhesive was then laminated onto a backing membrane (CoTran 9720 polyethylene film, 3M Corporation).
Topical and transdermal dosage forms of FTY720 were administered to F1 hybrid mice (n=5 mice per group). The blood of the mice was collected at various time points for CBC and PK analysis.
Topical dosing of FTY720 was achieved using 200 μL of a 1 mg/mL solution composed of 70% ethanol, 29.9% water, and 0.1% DMSO.
Transdermal dosing was achieved using patches made as described above. Patches were cut from the laminate and applied to bare skin above the front shoulder of the mice. Dosage was controlled by adjusting the thickness of the compound/adhesive applied to the release liner and number or size of patches. Fur was trimmed from the site of application and then shaved to expose bare skin. To improve adhesion, the skin was further prepped by swabbing with 70% ethanol and then allowed to air dry prior to placing the patch.

`CCCCCCCCc1ccc(CCC(N)(CO)CO)cc1` [FTY720, 2-amino-2-[2-(4-octylphenyl)ethyl]propane-1,3-diol]: in the assay with P. berghei ANKA, the survival entry is “significant survival advantage”. Moreover, in assay [1], the lymphocyte count entry is on record as “affected”, the neutrophil count entry is given as “affected” and the “white blood cell count” value was “affected”.
